Data as given in article PMC4685510, “A Cell Biologist’s Field Guide to Aurora Kinase Inhibitors” (Frontiers in Oncology, 2015).

What was measured:
Assay in all cases: biochemical
Format in all cases: biochemical
[1] = biological target: 363 human kinases (including Aurora A/B/C) (Homo sapiens, UniProt Q7KZI7); conditions: MARK2/PAR-1Ba; for remaining activity at 0.1 µM: 100 nM; for remaining activity at 0.1 µM / remaining activity at 0.5 µM: read-out: % Enzyme Activity (relative to DMSO controls)
Chain of 363 human kinases (including Aurora A/B/C) (Homo sapiens, UniProt Q7KZI7) (Q7KZI7 whole entry): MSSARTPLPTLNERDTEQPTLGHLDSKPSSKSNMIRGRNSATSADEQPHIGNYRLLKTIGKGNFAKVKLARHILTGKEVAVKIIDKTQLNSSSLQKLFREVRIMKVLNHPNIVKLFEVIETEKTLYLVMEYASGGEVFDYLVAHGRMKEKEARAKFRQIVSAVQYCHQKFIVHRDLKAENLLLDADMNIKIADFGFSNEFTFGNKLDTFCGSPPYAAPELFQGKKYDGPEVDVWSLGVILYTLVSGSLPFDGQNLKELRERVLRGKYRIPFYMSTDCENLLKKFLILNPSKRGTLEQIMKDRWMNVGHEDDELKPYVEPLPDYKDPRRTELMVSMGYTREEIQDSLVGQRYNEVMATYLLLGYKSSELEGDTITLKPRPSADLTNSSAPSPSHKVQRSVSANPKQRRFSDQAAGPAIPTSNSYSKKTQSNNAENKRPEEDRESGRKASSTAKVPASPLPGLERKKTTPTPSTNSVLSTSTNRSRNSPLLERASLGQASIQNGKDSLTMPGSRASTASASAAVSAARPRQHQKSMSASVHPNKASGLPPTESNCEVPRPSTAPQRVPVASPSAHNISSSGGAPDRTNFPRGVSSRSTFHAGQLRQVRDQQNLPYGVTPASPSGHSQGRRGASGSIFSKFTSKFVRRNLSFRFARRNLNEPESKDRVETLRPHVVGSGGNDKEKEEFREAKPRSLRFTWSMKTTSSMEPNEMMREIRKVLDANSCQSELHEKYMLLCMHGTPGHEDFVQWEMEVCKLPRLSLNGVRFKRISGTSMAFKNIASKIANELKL
Source text: (§1) However, the Aurora A/B selectivity ratios derived from our in vitro and in vivo data can be compared to prioritize inhibitors.

[2] = biological target: T1, 363 human kinases (including Aurora A/B/C) (Homo sapiens, UniProt Q9UEE5); conditions: DRAK1/STK17A, [ATP] 30 µM; for remaining activity at 0.1 µM: 100 nM; for remaining activity at 0.1 µM / remaining activity at 0.5 µM: read-out: % Enzyme Activity (relative to DMSO controls)
T1 sequence (Q9UEE5 1-414): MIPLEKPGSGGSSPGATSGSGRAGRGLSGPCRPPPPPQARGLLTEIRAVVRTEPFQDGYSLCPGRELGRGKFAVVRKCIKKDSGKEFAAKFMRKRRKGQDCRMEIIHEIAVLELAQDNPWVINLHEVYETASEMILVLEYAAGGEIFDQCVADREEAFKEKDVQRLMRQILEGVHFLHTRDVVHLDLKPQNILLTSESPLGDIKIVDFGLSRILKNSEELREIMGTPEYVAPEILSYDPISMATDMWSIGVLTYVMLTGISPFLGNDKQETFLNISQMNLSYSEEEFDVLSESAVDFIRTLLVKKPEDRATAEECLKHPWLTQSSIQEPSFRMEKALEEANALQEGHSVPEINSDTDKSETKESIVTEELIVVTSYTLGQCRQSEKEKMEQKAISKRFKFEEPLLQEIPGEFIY
Source text: as §1

[3] = biological target: 363 human kinases (including Aurora A/B/C) (Homo sapiens, UniProt O43353); conditions: RIPK2; for remaining activity at 0.1 µM: 100 nM; for remaining activity at 0.1 µM / remaining activity at 0.5 µM: read-out: % Enzyme Activity (relative to DMSO controls)
Chain of 363 human kinases (including Aurora A/B/C) (Homo sapiens, UniProt O43353) (O43353 whole entry): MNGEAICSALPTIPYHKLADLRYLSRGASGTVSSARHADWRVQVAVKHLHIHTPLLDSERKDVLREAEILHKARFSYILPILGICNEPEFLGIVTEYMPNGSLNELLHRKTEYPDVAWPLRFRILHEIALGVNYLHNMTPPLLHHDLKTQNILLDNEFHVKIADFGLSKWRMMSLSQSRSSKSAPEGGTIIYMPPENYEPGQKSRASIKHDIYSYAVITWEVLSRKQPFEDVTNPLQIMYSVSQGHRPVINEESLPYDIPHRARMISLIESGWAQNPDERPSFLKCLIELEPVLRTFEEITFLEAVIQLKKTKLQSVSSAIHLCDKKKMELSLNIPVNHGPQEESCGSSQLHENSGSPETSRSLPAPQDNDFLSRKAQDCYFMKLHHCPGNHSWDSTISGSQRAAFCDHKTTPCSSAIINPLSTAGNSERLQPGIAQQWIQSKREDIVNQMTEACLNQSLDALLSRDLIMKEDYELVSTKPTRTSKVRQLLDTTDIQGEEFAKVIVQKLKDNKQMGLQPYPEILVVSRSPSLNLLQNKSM
Source text: as §1

[4] = biological target: T2, 363 human kinases (including Aurora A/B/C) (Homo sapiens, UniProt Q13188); conditions: MST2/STK3; for remaining activity at 0.1 µM: 100 nM; for remaining activity at 0.1 µM / remaining activity at 0.5 µM: read-out: % Enzyme Activity (relative to DMSO controls)
T2 sequence (Q13188 1-491): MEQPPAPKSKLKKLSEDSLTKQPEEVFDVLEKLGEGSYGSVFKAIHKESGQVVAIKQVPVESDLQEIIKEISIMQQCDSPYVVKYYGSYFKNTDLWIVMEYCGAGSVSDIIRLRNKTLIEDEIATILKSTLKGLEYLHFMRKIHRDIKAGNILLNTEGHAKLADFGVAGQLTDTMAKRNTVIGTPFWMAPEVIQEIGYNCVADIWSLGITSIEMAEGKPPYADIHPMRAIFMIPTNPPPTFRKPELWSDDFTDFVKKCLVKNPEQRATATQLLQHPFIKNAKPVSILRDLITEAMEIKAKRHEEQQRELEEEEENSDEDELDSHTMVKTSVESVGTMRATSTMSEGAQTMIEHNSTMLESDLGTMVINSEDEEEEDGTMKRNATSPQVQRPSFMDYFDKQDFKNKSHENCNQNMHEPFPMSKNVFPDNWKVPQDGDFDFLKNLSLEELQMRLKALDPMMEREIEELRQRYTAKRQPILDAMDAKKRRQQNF
Source text: as §1

[5] = biological target: T3, 363 human kinases (including Aurora A/B/C) (Homo sapiens, UniProt Q8IWQ3); conditions: BRSK2, [ATP] 50 µM; for remaining activity at 0.1 µM: 100 nM; for remaining activity at 0.1 µM / remaining activity at 0.5 µM: read-out: % Enzyme Activity (relative to DMSO controls)
T3 sequence (Q8IWQ3 1-736): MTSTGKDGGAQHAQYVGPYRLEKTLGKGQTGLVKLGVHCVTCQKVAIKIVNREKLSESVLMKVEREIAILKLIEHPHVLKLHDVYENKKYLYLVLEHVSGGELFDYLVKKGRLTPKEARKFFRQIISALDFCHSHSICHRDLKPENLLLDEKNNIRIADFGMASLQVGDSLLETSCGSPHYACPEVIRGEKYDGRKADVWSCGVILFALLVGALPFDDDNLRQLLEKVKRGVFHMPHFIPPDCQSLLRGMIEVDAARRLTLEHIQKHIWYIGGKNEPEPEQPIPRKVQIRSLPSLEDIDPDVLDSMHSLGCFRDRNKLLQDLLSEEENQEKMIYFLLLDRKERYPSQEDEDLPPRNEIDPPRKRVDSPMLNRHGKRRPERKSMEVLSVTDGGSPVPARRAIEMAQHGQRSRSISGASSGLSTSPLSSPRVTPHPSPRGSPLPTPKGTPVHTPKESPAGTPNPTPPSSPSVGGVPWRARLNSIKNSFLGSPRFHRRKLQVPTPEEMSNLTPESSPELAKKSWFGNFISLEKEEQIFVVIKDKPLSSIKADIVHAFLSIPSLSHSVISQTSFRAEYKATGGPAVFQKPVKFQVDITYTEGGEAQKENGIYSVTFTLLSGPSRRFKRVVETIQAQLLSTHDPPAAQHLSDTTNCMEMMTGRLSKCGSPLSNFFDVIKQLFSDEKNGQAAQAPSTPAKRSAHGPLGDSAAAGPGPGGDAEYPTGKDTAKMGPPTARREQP
Source text: as §1

[6] = biological target: T4, 363 human kinases (including Aurora A/B/C) (Homo sapiens, UniProt P45985); conditions: MKK4; for remaining activity at 0.1 µM: 100 nM; for remaining activity at 0.1 µM / remaining activity at 0.5 µM: read-out: % Enzyme Activity (relative to DMSO controls)
T4 sequence (P45985 1-399): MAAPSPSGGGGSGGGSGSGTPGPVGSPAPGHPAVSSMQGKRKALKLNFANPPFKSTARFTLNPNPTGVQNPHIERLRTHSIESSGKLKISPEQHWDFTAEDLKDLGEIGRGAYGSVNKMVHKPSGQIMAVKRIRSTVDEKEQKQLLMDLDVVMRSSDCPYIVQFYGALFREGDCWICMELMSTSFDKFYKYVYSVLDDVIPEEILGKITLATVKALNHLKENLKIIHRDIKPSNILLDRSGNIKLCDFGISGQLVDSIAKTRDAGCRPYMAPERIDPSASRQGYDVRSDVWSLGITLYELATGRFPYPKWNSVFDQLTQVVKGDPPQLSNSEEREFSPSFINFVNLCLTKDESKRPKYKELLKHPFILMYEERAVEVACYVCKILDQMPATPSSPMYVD
Source text: as §1

[7] = biological target: 363 human kinases (including Aurora A/B/C) (Homo sapiens, UniProt Q07002); conditions: CDK18/cyclin Y (PCTK3), [ATP] 50 µM; for remaining activity at 0.1 µM: 100 nM; for remaining activity at 0.1 µM / remaining activity at 0.5 µM: read-out: % Enzyme Activity (relative to DMSO controls)
Chain of 363 human kinases (including Aurora A/B/C) (Homo sapiens, UniProt Q07002) (Q07002 whole entry): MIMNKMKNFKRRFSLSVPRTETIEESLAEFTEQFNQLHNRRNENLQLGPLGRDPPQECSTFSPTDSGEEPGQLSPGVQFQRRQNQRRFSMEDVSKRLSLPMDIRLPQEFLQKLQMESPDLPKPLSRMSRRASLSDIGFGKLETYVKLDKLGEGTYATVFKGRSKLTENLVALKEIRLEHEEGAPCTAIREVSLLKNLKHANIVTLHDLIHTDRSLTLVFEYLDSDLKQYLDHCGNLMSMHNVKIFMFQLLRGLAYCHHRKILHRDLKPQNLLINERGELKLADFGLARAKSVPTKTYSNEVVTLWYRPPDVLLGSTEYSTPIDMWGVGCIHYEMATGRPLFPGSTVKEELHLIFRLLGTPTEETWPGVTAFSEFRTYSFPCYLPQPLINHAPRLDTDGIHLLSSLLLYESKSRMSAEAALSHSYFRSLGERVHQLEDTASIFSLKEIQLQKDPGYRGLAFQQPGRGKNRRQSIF
Source text: as §1

[8] = biological target: 363 human kinases (including Aurora A/B/C) (Homo sapiens, UniProt O94804); conditions: LOK/STK10; for remaining activity at 0.1 µM: 100 nM; for remaining activity at 0.1 µM / remaining activity at 0.5 µM: read-out: % Enzyme Activity (relative to DMSO controls)
Chain of 363 human kinases (including Aurora A/B/C) (Homo sapiens, UniProt O94804) (O94804 whole entry): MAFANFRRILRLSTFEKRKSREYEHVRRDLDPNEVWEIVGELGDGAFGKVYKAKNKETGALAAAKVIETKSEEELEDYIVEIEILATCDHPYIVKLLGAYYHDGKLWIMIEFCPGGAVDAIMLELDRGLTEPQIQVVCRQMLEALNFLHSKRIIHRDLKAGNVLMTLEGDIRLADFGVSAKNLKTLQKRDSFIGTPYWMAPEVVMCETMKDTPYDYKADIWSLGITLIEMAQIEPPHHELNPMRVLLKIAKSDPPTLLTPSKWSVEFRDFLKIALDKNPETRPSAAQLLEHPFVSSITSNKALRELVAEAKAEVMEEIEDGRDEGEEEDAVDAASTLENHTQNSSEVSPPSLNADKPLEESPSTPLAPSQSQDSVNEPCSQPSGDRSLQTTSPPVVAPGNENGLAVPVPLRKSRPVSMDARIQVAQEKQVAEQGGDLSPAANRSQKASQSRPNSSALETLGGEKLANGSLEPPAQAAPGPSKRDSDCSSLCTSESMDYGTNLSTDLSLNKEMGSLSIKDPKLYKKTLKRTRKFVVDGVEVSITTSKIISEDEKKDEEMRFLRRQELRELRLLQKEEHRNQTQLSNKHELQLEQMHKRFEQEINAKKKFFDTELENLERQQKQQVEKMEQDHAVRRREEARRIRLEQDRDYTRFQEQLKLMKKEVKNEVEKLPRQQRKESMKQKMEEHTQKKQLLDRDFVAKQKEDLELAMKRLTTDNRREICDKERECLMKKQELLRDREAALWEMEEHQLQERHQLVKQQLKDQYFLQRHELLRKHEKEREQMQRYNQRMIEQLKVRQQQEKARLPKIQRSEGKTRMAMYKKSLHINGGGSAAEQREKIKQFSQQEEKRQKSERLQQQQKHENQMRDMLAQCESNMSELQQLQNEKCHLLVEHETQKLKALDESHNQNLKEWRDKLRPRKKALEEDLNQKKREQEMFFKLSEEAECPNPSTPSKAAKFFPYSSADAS
Source text: as §1

[9] = biological target: 363 human kinases (including Aurora A/B/C) (Homo sapiens, UniProt P04626); conditions: ERBB2/HER2, [ATP] 20 µM; for remaining activity at 0.1 µM: 100 nM; for remaining activity at 0.1 µM / remaining activity at 0.5 µM: read-out: % Enzyme Activity (relative to DMSO controls)
Chain of 363 human kinases (including Aurora A/B/C) (Homo sapiens, UniProt P04626) (P04626 23-1255): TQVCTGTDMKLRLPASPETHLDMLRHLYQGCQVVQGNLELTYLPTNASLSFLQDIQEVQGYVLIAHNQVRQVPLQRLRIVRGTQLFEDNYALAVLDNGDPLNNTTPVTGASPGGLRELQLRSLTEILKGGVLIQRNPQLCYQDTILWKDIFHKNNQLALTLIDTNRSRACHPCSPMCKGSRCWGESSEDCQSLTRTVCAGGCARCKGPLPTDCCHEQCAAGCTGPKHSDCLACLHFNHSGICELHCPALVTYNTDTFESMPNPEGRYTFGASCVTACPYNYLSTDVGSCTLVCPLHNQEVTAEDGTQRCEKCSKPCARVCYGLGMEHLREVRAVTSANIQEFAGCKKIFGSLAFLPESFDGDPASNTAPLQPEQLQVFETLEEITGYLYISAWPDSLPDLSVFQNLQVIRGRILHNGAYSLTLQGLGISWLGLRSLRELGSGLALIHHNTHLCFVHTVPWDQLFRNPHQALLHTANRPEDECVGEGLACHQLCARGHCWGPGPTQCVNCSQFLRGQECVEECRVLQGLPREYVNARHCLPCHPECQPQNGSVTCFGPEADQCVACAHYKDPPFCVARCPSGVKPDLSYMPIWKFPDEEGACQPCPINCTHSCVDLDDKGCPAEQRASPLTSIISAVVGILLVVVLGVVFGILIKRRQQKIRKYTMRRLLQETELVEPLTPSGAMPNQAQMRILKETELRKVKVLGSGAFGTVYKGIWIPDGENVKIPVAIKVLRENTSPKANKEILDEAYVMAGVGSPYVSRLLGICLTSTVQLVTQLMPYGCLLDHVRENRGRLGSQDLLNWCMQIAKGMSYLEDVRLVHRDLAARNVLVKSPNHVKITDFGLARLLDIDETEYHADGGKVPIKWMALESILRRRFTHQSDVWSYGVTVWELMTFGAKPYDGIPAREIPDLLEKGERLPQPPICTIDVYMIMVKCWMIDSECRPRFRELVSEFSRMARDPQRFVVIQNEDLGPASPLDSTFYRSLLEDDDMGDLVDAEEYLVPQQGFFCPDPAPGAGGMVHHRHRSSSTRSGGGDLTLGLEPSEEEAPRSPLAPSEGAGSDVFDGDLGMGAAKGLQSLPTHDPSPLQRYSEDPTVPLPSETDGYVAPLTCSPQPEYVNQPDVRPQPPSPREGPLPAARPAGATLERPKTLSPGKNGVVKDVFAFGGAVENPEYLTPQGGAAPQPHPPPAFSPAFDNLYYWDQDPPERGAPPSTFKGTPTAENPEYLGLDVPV
Source text: as §1

## CCn1cc(-c2ccnc3[nH]c(-c4cccc(CN(C)C)c4)cc23)c(-c2ccc(NC(=O)N(C)C)cc2)n1 [GSK1070916]
[1]
  remaining activity at 0.1 µM: 96.9%
[2]
  remaining activity at 0.1 µM: 109%
[3]
  remaining activity at 0.1 µM: 116%
[4]
  remaining activity at 0.1 µM: 91.8%
[5]
  remaining activity at 0.1 µM: 88.4%
[6]
  remaining activity at 0.1 µM: 90.1%
[7]
  remaining activity at 0.1 µM: 107%
[8]
  remaining activity at 0.1 µM: 73.2%
[9]
  remaining activity at 0.1 µM: 103%

## O=C(O)[C@]1(Cc2cccc(Nc3nccs3)n2)CC[C@@H](Oc2cccc(Cl)c2F)CC1 [MK-5108]
[1]
  remaining activity at 0.1 µM: 96.8%
[1]; 500 nM
  remaining activity at 0.5 µM: 97.8%
[2]
  remaining activity at 0.1 µM: 105%
[2]; 500 nM
  remaining activity at 0.5 µM: 102%
[3]
  remaining activity at 0.1 µM: 89.1%
[3]; 500 nM
  remaining activity at 0.5 µM: 60%
[4]
  remaining activity at 0.1 µM: 87.7%
[4]; 500 nM
  remaining activity at 0.5 µM: 48.4%
[5]
  remaining activity at 0.1 µM: 92.7%
[5]; 500 nM
  remaining activity at 0.5 µM: 78.7%
[6]
  remaining activity at 0.1 µM: 95.7%
[6]; 500 nM
  remaining activity at 0.5 µM: 97.7%
[7]
  remaining activity at 0.1 µM: 85.9%
[7]; 500 nM
  remaining activity at 0.5 µM: 108%
[8]
  remaining activity at 0.1 µM: 34%
[8]; 500 nM
  remaining activity at 0.5 µM: 10.3%
[9]
  remaining activity at 0.1 µM: 100%
[9]; 500 nM
  remaining activity at 0.5 µM: 111%

## O=C(c1cccc(Cl)c1F)N1CCN(Cc2cccc(Nc3nccs3)n2)CC1 [MK-8745]
[1]; 500 nM
  % Enzyme Activity (relative to DMSO controls): 103.22%
  remaining activity at 0.5 µM: 104%
[2]; 500 nM
  % Enzyme Activity (relative to DMSO controls): 102.39%
  remaining activity at 0.5 µM: 104%
[3]; 500 nM
  % Enzyme Activity (relative to DMSO controls): 82.53%
  remaining activity at 0.5 µM: 89.3%
[4]; 500 nM
  % Enzyme Activity (relative to DMSO controls): 46.05%
  remaining activity at 0.5 µM: 46.6%
[5]; 500 nM
  % Enzyme Activity (relative to DMSO controls): 107.67%
  remaining activity at 0.5 µM: 109%
[6]; 500 nM
  % Enzyme Activity (relative to DMSO controls): 89.78%
  remaining activity at 0.5 µM: 90.9%
[7]; 500 nM
  % Enzyme Activity (relative to DMSO controls): 106.28%
  remaining activity at 0.5 µM: 107%
[8]; 500 nM
  % Enzyme Activity (relative to DMSO controls): 49.80%
  remaining activity at 0.5 µM: 52.1%
[9]; 500 nM
  % Enzyme Activity (relative to DMSO controls): 99.40%
  remaining activity at 0.5 µM: 99.8%
